Laboratory results reported in ChEMBL document CHEMBL5257066, “The discovery of cyclic γ-AApeptides as the promising ligands targeting EP2” (Bioorg Med Chem Lett, 2023).
The source made the active and inactive calls. The calls are words filed in the database; no cut-off is given here.

What was measured:
[1] = molecular target: T1, Prostaglandin E2 receptor EP2 subtype (Homo sapiens, UniProt P43116); assay: Binding affinity to human recombinant PTGER2 by high throughput fluorescence polarization assay
T1 sequence (P43116 whole entry): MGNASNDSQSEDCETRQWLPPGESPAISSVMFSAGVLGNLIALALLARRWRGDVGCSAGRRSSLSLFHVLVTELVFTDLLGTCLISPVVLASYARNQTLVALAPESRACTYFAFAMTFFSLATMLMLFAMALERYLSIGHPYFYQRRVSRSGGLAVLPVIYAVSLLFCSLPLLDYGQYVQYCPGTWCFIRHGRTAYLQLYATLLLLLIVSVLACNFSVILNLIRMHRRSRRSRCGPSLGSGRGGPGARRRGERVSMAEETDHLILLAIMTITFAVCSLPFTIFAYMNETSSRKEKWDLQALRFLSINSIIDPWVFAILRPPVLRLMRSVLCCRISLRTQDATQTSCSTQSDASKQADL

[2] = molecular target: T1, Prostaglandin E2 receptor EP2 subtype; assay: Binding affinity to human recombinant PTGER2 assessed as dissociation constant by high throughput fluorescence polarization assay

CC(C)C[C@H]1CN(CC(N)=O)C(=O)CCSCc2ccc(cc2)C(=O)N[C@@H](CC(C)C)CN(C(=O)CC2CC2)CC(=O)N[C@@H](CCCCN)CN(C(=O)CCc2ccccc2)CC(=O)N[C@@H](Cc2ccccc2)CN(C(=O)CCC2CCCCC2)CC(=O)N1
Activity [1]: Active

CC(C)C[C@H]1CN(CC(=O)NCCC(=O)N[C@@H](CCCCNC(=S)Nc2ccc(-c3c4ccc(=O)cc-4oc4cc(O)ccc34)c(C(=O)O)c2)C(N)=O)C(=O)CCSCc2ccc(cc2)C(=O)N[C@@H](CCCCN)CN(C(=O)CCc2ccccc2)CC(=O)N[C@@H](CC(C)C)CN(C(=O)CCC2CCCCC2)CC(=O)N[C@@H](Cc2ccccc2)CN(C(=O)Cc2ccc3ccccc3c2)CC(=O)N1
Kd [2]: 16 nM

CC(C)C[C@H]1CN(CC(N)=O)C(=O)CCSCc2ccc(cc2)C(=O)N[C@@H](CCCCN)CN(C(=O)CCc2ccccc2)CC(=O)N[C@@H](CC(C)C)CN(C(=O)CCC2CCCCC2)CC(=O)N[C@@H](Cc2ccccc2)CN(C(=O)Cc2ccc3ccccc3c2)CC(=O)N1
Activity [1]: Active
